{"source": "paper PMC4342090", "about": "“A novel inhibitor of Plasmodium falciparum spermidine synthase: a twist in the tail” (Malaria Journal, 2015)", "molecules": {"B1": {"name": "Plasmodium falciparum spermidine synthase lacking 39 amino acids at the N-terminus (enzyme, UniProt Q8II73 40-321, looked up)", "chain": "SKKWFSEFSIMWPGQAFSLKIKKILYETKSKYQNVLVFESTTYGKVLVLDGVIQLTEKDEFAYHEMMTHVPMTVSKEPKNVLVVGGGDGGIIRELCKYKSVENIDICEIDETVIEVSKIYFKNISCGYEDKRVNVFIEDASKFLENVTNTYDVIIVDSSDPIGPAETLFNQNFYEKIYNALKPNGYCVAQCESLWIHVGTIKNMIGYAKKLFKKVEYANISIPTYPCGCIGILCCSKTDTGLTKPNKKLESKEFADLKYYNYENHSAAFKLPAFLLKEIENI", "notes": "Plasmodium falciparum spermidine synthase (EC 2.5.1.16), protein lacking 39 amino acids at the N-terminus, cloned into the p15-TEV-LIC vector, from SGC Toronto; Crystallised with compound 8 and MTA; Three molecules in the asymmetric unit; subunits B and C form the homodimer; also called PfSpdS; 39 amino acid N-terminal truncated PfSpdS protein; source: expression and isolation according to Dufe …"}}, "key": {"mammalian SpdS [1]": {"system": "mammalian SpdS", "settings": "cited from earlier work; for IC50: Mammalian, read-out: Enzyme inhibition, IC50"}, "PfSpdS [2]": {"molecular_target": "T1, PfSpdS (Plasmodium falciparum, UniProt Q8II73)", "T1 sequence (Q8II73 entry or part of it)": "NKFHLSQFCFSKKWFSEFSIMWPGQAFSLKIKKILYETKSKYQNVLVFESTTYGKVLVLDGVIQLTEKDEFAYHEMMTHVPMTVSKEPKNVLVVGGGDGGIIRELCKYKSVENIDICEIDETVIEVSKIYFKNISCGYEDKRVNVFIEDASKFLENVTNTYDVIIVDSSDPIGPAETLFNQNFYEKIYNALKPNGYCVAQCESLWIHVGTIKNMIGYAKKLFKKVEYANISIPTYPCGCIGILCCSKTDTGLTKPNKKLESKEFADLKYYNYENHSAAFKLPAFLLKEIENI", "experiment": "biochemical", "assay_type": "biochemical", "settings": "for inhibition at 100 µM: read-out: % Inhibition (at 100 μM); for fold difference in IC50 between compound 8 and compound 9: PfSpdS; for pseudo-substrate for PfSpdS: unpublished results of the authors", "procedure": "A 29 amino acid N-terminus deletion mutant of PfSpdS cloned into pTRCHisB (Invitrogen) was expressed in E. coli BLR (DE3), purified and assayed as described by Haider et al. [18]. […] Stock solutions of the inhibitors were prepared in dddH2O. For the 100 μM assays, 1 μg purified PfSpdS, 50 μM RS-dcAdoMet, 100 nCi [2,3-^3H] putrescine hydrochloride (60 Ci/mmol; American Radiolabelled Chemicals, Inc, Minnesota, USA) and 50 μM unlabelled putrescine dihydrochloride (Sigma) were used. […] All inhibition assays were performed in triplicate."}, "PfSpdS [3]": {"molecular_target": "T1, PfSpdS", "settings": "cited from earlier work; for IC50: P. falciparum, read-out: Enzyme inhibition, IC50"}, "[4]": {"system": "mammalian spermine synthase", "design": "method as in Shirahata et al. [22]", "settings": "ref Shirahata et al. [22], cited from earlier work"}, "mammalian SpdS [5]": {"system": "mammalian SpdS", "experiment": "Mammalian spermidine synthase enzyme inhibition", "assay_type": "biochemical"}, "[6]": {"molecular_target": "the molecule itself", "experiment": "crystal structure; hanging drop vapour diffusion, 293 K; 25% PEG3350, 0.1 M MES pH 5.6, 0.1 M (NH4)2SO4; protein pre-incubated with 2.5 mM compound 8 and MTA; space group C121, three molecules in the asymmetric unit; interface analysed with PISA"}, "[7]": {"settings": "ref Lakanen et al. [21], Pegg et al. [38]"}, "[8]": {"settings": "100 μM compound, PfSpdS activity inhibited compared to untreated enzyme, mean ± SEM, 100 µM"}}, "note": "Entries after “also recorded” stand apart in the source; their conditions may differ. Read-outs that look alike come from different tables or passages of the source. Peptide text beside a SMILES is read from it."}
{"molecule": "C[C@H]1CC[C@H](N)CC1", "note": "[4MCHA, trans-4-methylcyclohexylamine]", "values": [{"measurement": "IC50", "setting": "mammalian SpdS [1]; [7]", "result": 1.7, "unit": "µM"}, {"measurement": "inhibition at 100 µM", "setting": "PfSpdS [2]", "result": "95.3 ± 0.4", "unit": "%"}, {"measurement": "IC50", "setting": "PfSpdS [3]; ref Haider et al. [18]", "result": "1.4 ± 0.1", "unit": "µM"}]}
{"molecule": "CN1CCC(N)CC1", "note": "[Compound 2, trans-4-amino-1-methylpiperidine]", "values": [{"measurement": "inhibition at 100 µM", "setting": "PfSpdS [2]; 100 μM compound, PfSpdS activity inhibited compared to untreated enzyme, mean ± SEM", "result": "6.9 ± 5.8", "unit": "%"}]}
{"molecule": "NC1CCCCC1", "note": "[Cyclohexylamine]", "values": [{"measurement": "IC50", "setting": "mammalian SpdS [1]; ref Shirahata et al. [22]", "result": 8.1, "unit": "µM"}, {"measurement": "IC50", "setting": "PfSpdS [3]; ref Haider et al. [18]", "result": "19.7 ± 3.1", "unit": "µM"}]}
{"molecule": "C=CCCCN", "note": "[APE, 5-amino-1-pentene]", "values": [{"measurement": "IC50", "setting": "mammalian SpdS [1]; ref Goda et al. [39]", "result": 1.7, "unit": "µM"}, {"measurement": "IC50", "setting": "PfSpdS [3]; ref Haider et al. [18]", "result": "6.5 ± 2.1", "unit": "µM"}]}
{"molecule": "NCCCN[C@H]1CC[C@H](N)CC1", "note": "[Compound 8, N-(3-aminopropyl)-trans-cyclohexane-1,4-diamine]", "values": [{"measurement": "IC50", "setting": "PfSpdS [2]", "result": "619 ± 144", "unit": "µM"}, {"measurement": "fold difference in IC50 between compound 8 and compound 9", "setting": "PfSpdS [2]", "result": 100, "unit": "fold"}, {"measurement": "inhibition at 100 µM", "setting": "PfSpdS [2]", "result": "12.7 ± 9.1", "unit": "%"}, {"measurement": "pseudo-substrate for PfSpdS", "setting": "PfSpdS [2]", "result": "acts as a pseudo-substrate"}]}
{"molecule": "NCCCNC1CCCCC1", "note": "[Compound 9, N-(3-aminopropyl)-cyclohexylamine]", "values": [{"measurement": "inhibition of mammalian spermine synthase", "setting": "[4]", "result": "inhibitor"}, {"measurement": "inhibition of mammalian spermine synthase", "setting": "[4]; listed as compound 9", "result": "potent inhibitor"}, {"measurement": "inhibition of mammalian SpdS", "setting": "mammalian SpdS [1]; ref Shirahata et al. [22]", "result": "does not inhibit"}, {"measurement": "inhibition of mammalian SpdS", "setting": "mammalian SpdS [1]; ref Shirahata et al. [22], listed as compound 9", "result": "did not inhibit and not"}, {"measurement": "IC50", "setting": "PfSpdS [2]", "result": "7.4 ± 2.4", "unit": "µM"}, {"measurement": "Ki", "setting": "PfSpdS [2]", "result": 2.8, "unit": "µM"}, {"measurement": "fold difference in IC50 between compound 8 and compound 9", "setting": "PfSpdS [2]", "result": 100, "unit": "fold"}, {"measurement": "type of inhibition", "setting": "PfSpdS [2]; between compound and putrescine, preliminary kinetic experiments", "result": "mixed-type competitive inhibition"}, {"measurement": "inhibition at 100 µM", "setting": "PfSpdS [2]", "result": "88.3 ± 1.2", "unit": "%"}, {"measurement": "pseudo-substrate for PfSpdS", "setting": "PfSpdS [2]", "result": "no evidence was found"}]}
{"molecule": "NCCCCCC(CCN)SCC1OC(n2cnc3c(N)ncnc32)C(O)C1O", "note": "(stereo not shown) [AdoDATO, S-adenosyl-1,8-diamino-3-thio-octane]", "values": [{"measurement": "IC50", "setting": "mammalian SpdS [1]; [7]", "result": "0.05 to 0.1", "unit": "µM"}, {"measurement": "fold lower IC50 for mammalian SpdS compared to the P. falciparum enzyme", "setting": "mammalian SpdS [5]; ref [18],[20],[38]", "result": 170, "unit": "fold"}, {"measurement": "fold less efficient inhibitor of mammalian SpdS than adenosylspermidine", "setting": "mammalian SpdS [5]; ref [21],[38]", "result": "3-7 fold"}, {"measurement": "IC50", "setting": "PfSpdS [3]; ref Dufe et al. [20]", "result": 8.5, "unit": "µM"}]}
{"molecule": "NCCCC[C@H](NC(=O)[C@@H](N)Cc1ccc(O)cc1)C(N)=O", "note": "[Compound 3] (H-Tyr-Lys-NH2)", "values": [{"measurement": "% Inhibition (at 100 μM)", "setting": "PfSpdS [2]; [8]", "result": "No Inhibition; also recorded: did not inhibit"}]}
{"molecule": "CN(C[C@H](O)CN)C[C@H](O)CN1CCCCC1", "note": "[Compound 6, [(2R)-3-azaniumyl-2-hydroxypropyl]-[(2S)-2-hydroxy-3-piperidin-1-ium-1-ylpropyl]-methylazanium]", "values": [{"measurement": "% Inhibition (at 100 μM)", "setting": "PfSpdS [2]; [8]", "result": "No Inhibition"}, {"measurement": "% Inhibition (at 100 μM)", "setting": "PfSpdS [2]; 100 μM compound, PfSpdS activity inhibited compared to untreated enzyme, mean ± SEM, listed as compound 6, 100 µM", "result": "neither compound showed reduction in PfSpdS activity"}]}
{"molecule": "NCCCN1CCN(CCCN)CC1", "note": "[Compound 4, 3-[4-(3-azaniumylpropyl)piperazine-1,4-diium-1-yl]propylazanium]", "values": [{"measurement": "% Inhibition (at 100 μM)", "setting": "PfSpdS [2]; [8]", "result": "No Inhibition; also recorded: did not inhibit"}]}
{"molecule": "NCCCC[C@H](NC(=O)[C@@H](N)CCCCN)C(=O)Nc1ccc2ccccc2c1", "note": "[Compound 7, [(2S)-6-azaniumyl-1-[[(2S)-6-azaniumyl-1-(naphthalen-2-ylamino)-1-oxohexan-2-yl]amino]-1-oxohexan-2-yl]azanium]", "values": [{"measurement": "% Inhibition (at 100 μM)", "setting": "PfSpdS [2]; [8]", "result": "No Inhibition"}, {"measurement": "% Inhibition (at 100 μM)", "setting": "PfSpdS [2]; 100 μM compound, PfSpdS activity inhibited compared to untreated enzyme, mean ± SEM, listed as compound 7, 100 µM", "result": "showed no inhibition"}]}
{"molecule": "5′-methylthioadenosine [MTA]", "values": [{"measurement": "IC50", "setting": "PfSpdS [3]; ref Haider et al. [18]", "result": "159 ± 27", "unit": "µM"}]}
{"molecule": "N[C@H]1CC[C@H](N)CC1", "note": "[trans-1,4-diaminocyclohexane]", "values": [{"measurement": "pseudo-substrate for mammalian SpdS", "setting": "mammalian SpdS [1]; ref [22]", "result": "~ 12%"}]}
{"molecule": "C[S+](CCCN)C[C@H]1O[C@@H](n2cnc3c(N)ncnc32)[C@H](O)[C@@H]1O", "note": "(stereo partly shown) [dcAdoMet, decarboxylated S-adenosylmethionine]", "values": [{"measurement": "Km", "setting": "mammalian SpdS [1]; mammalian enzyme, ref [18],[20],[38], read-out: Km value of the enzyme for dcAdoMet", "result": "7 to 25", "unit": "µM"}, {"measurement": "Km", "setting": "PfSpdS [3]; P. falciparum enzyme, ref [18],[20],[38], read-out: Km value of the enzyme for dcAdoMet", "result": 35, "unit": "µM"}]}
{"molecule": "CC1CCN(CCCN)CC1", "note": "[Compound 1, 1-(3-ammoniopropyl)-4-methylpiperidin-1-ium]", "values": [{"measurement": "inhibition at 100 µM", "setting": "PfSpdS [2]", "result": "17 ± 9.4", "unit": "%"}]}
{"molecule": "CN1CCN(CCC(=O)NNC=C2C=CC(=O)C=C2O)CC1", "note": "[Compound 5, N’-[(2-hydroxy-4-oxocyclohexa-2,5-dien-1-ylidene)methyl]-3-(4-methylpiperazine-1,4-diium-1-yl)-propanehydrazide]", "values": [{"measurement": "% Inhibition (at 100 μM)", "setting": "PfSpdS [2]; [8]", "result": "No Inhibition"}, {"measurement": "% Inhibition (at 100 μM)", "setting": "PfSpdS [2]; 100 μM compound, PfSpdS activity inhibited compared to untreated enzyme, mean ± SEM, listed as compound 5, 100 µM", "result": "neither compound showed reduction in PfSpdS activity"}]}
{"molecule": "B1", "values": [{"measurement": "binding result", "setting": "[6]", "result": "binds"}]}
